Data from patent EP3431484A1, “A FLUORESCENT CYCLIC DINUCLEOTIDE AND ITS USE IN METHODS OF IDENTIFYING SUBSTANCES HAVING AN ABILITY TO MODULATE THE CGAS/STING PATHWAY” (Ludwig-Maximilians-Universität München, priority 2017, dated 2019).

Tested on: human truncated STING (hSTING^cd), cytosolic domain aa 139-379, R220H+H232R variant
Settings: 200 µM hSTING^cd, 0-150 µM competitor; Figure 10d
Experimental: The quenching effect of STING on 2'3'fGAMP can be further used to search and compare STING-binding compounds. […] After second round of incubation for 15 min the samples were measured in 96-well black non-binding PS plates (Greiner Bio-One) on Tecan infinite M1000 (λex=305 nm, λem=363 nm, gain 140, settle time 10ms) at 25°C.

Question: For `Nc1nc2c(ncn2[C@@H]2O[C@@H]3COP(=O)(O)O[C@H]4[C@@H](O)[C@H](n5cnc6c(=O)[nH]c(N)nc65)O[C@@H]4COP(=O)(O)O[C@H]3[C@H]2O)c(=O)[nH]1` [c-di-GMP], which “affinity towards STING, compared by slope of fluorescence increase (s1, s2)” value is on record?
Answer: Its value is “lower affinity”.
